One experiment deals with Plasmodium falciparum. Put plainly: microbe, parasite or virus in culture. To be noted: 3D7, 72 h.
Experiment [1] in a line: Inhibition of Plasmodium vivax DHODH expressed in Escherichia coli BL21-DE3 using L-dihydroorotate as substrate by steady-state DCIP method.
A short description of experiment [2]: Inhibition of Plasmodium falciparum DHODH expressed in Escherichia coli BL21-DE3 using L-dihydroorotate as substrate by steady-state DCIP method.
Experiment [3] addresses Dihydroorotate dehydrogenase (quinone), mitochondrial (Homo sapiens, UniProt Q02127). It is filed as ADME.

SMILES strings stand for the structures.

As a reminder, the EC50 is the concentration at which the effect is half-maximal. A low value points to an effect from little substance. Broadly, the IC50 is the concentration needed to halve the response being measured. A lower IC50 goes with greater potency.

Chain of Dihydroorotate dehydrogenase (quinone), mitochondrial (Q02127 whole entry): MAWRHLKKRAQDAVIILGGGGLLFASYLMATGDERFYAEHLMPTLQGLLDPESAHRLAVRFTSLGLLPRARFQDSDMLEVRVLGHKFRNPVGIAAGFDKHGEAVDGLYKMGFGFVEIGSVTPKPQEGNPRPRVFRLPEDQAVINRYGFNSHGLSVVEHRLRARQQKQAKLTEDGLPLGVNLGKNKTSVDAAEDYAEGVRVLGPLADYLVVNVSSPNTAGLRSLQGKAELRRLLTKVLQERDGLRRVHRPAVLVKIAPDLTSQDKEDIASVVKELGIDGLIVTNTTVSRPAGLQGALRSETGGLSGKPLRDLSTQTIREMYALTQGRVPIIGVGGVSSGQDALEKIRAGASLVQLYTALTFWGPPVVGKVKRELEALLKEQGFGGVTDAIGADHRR

In the experiment with Plasmodium falciparum, `Cc1c(Cc2ccc(C(F)(F)F)nc2F)c[nH]c1C(=O)NC(C)c1nc[nH]n1` (racemic) gave an EC50 of 580 nM. Besides, the half-inhibitory concentration (IC50) in experiment [1] is 730 nM; in experiment [2] it was 990 nM; in experiment [3], greater than 100000 nM.

In the experiment with Plasmodium falciparum, `Cc1c(Cc2ccc(C(F)(F)F)nc2F)c[nH]c1C(=O)N1CC(F)(F)C1` showed an EC50 of 2.6 nM. Moreover, the results for the half-inhibitory concentration (IC50) in experiment [1], in experiment [2] and in experiment [3] were 12 nM, 16 nM and greater than 100000 nM, respectively.

Turning to `Cc1cc(C(C)NC(=O)c2[nH]cc(Cc3ccc(F)c4ccncc34)c2C)no1` (racemic), in the experiment with Plasmodium falciparum, the EC50 is 2.2 nM. For the same compound, the IC50 in experiment [1] was 48 nM; in experiment [2], 36 nM; in experiment [3], greater than 100000 nM.

Compound `Cc1c(Cc2ccc(C(F)(F)F)cc2)c[nH]c1C(=O)NC(C)c1cc(Br)no1` (racemic) yielded a concentration for a half-maximal effect (EC50) in the experiment with Plasmodium falciparum of 260 nM. In addition, the figures for the IC50 in experiment [1], in experiment [2] and in experiment [3] were 39 nM, 380 nM and greater than 100000 nM, respectively.

In the experiment on Plasmodium falciparum, `Cc1cc(C(C)NC(=O)c2[nH]cc(C(C#N)c3ccc(C(F)(F)F)nc3)c2C)no1` (racemic) registered an EC50 of 21 nM. In addition, the IC50 in experiment [1] is 410 nM; in experiment [2], 270 nM; in experiment [3], greater than 100000 nM.

In the experiment on Plasmodium falciparum, `CCOC(=O)c1[nH]cc(Cc2cccc3ncoc23)c1C` returned a concentration for a half-maximal effect (EC50) of 220 nM. In addition, the half-inhibitory concentration (IC50) was 13 nM in experiment [1], 100 nM in experiment [2] and greater than 100000 nM in experiment [3].

As for `COC(c1ccc(C(F)(F)F)nc1)c1c[nH]c(C(=O)NC(C)c2cc(C)on2)c1C` (racemic), the midpoint of the response in the experiment with Plasmodium falciparum, the EC50, lay at 40 nM. Moreover, the half-maximal inhibitory concentration (IC50) in experiment [1] is 100 nM; in experiment [2] it was 150 nM; in experiment [3], greater than 100000 nM.

For the compound `CCOC(=O)c1[nH]cc(Cc2ccc(C(F)(F)F)c3ncoc23)c1C`, in the experiment on Plasmodium falciparum, the half-maximal effective concentration (EC50) is 24 nM. In addition, the IC50 in experiment [1] is 16 nM; in experiment [2], 47 nM; in experiment [3], greater than 100000 nM.

The compound `Cc1cc(C(C)NC(=O)c2[nH]cc(Cc3cccc4ccncc34)c2C)no1` (racemic) yielded an EC50 in the experiment with Plasmodium falciparum of 3.7 nM. The IC50 in experiment [1] is 21 nM; in experiment [2] it was 30 nM; in experiment [3] it was greater than 100000 nM.

Consider `Cc1c(-c2c[nH]c3nc(C(F)(F)F)ccc23)c[nH]c1C(=O)NC1CC1`, for which, in the experiment on Plasmodium falciparum, a half-maximal response (EC50) required 13 nM. Moreover, the IC50 in experiment [1] is 10 nM; in experiment [2] it was 120 nM; in experiment [3] it was greater than 100000 nM.

In the case of `Cc1c(Cc2ccc(C(F)(F)F)nc2F)c[nH]c1C(=O)NC1CC1`, a half-maximal response with Plasmodium falciparum (EC50) required 3.1 nM. Moreover, the 50% inhibitory concentration (IC50) was 5.4 nM in experiment [1], 11 nM in experiment [2] and greater than 100000 nM in experiment [3].

Turning to `Cc1nc(C(C)NC(=O)c2[nH]cc(Cc3ccc(C(F)(F)F)nc3)c2C)n[nH]1` (racemic), a half-maximal response in the experiment on Plasmodium falciparum (EC50) required 380 nM. For the same compound, the IC50 in experiment [1] was 320 nM; in experiment [2], 680 nM; in experiment [3], greater than 100000 nM.

Turning to `N#Cc1c(Cc2ccc(C(F)(F)F)nc2)c[nH]c1C(=O)NC1CC1`, the response with Plasmodium falciparum was half-maximal at 250 nM (EC50). Further, the values for the half-inhibitory concentration (IC50) in experiment [1], in experiment [2] and in experiment [3] were 430 nM, 410 nM and greater than 100000 nM, respectively.

In turn, `Cc1c(Cc2ccc(C(F)(F)F)nc2)c[nH]c1C(=O)NC(C)c1cc(Br)no1` (racemic) returned a concentration giving a half-maximal response (EC50) in the experiment with Plasmodium falciparum of 120 nM. Moreover, the concentration for half-maximal inhibition (IC50) in experiment [1] is 20 nM; in experiment [2] it was 70 nM; in experiment [3], greater than 100000 nM.

Regarding `Cc1cc(C(C)NC(=O)c2[nH]cc(C(O)c3ccc(C(F)(F)F)nc3)c2C)no1` (racemic), the response in the experiment with Plasmodium falciparum was half-maximal at 22 nM (EC50). The IC50 in experiment [1] is 130 nM; in experiment [2], 180 nM; in experiment [3], greater than 100000 nM.

`Cc1c(Cc2ccc(C(F)(F)F)cc2Br)c[nH]c1C(=O)NC(C)c1nc[nH]n1` (racemic): the concentration giving a half-maximal response (EC50) with Plasmodium falciparum was 990 nM. Moreover, the IC50 was 260 nM in experiment [1], 950 nM in experiment [2] and greater than 100000 nM in experiment [3].

Take `Cc1c(C2(c3ccc(C(F)(F)F)nc3)CC2)c[nH]c1C(=O)N1CC(F)(F)C1`: in the experiment with Plasmodium falciparum, it took 2 nM to reach a half-maximal effect (EC50). Besides, the IC50 in experiment [1] was 17 nM; in experiment [2], 21 nM; in experiment [3], greater than 100000 nM.

The record behind these values is ChEMBL document CHEMBL4811258, “Potent Antimalarials with Development Potential Identified by Structure-Guided Computational Optimization of a Pyrrole-Based Dihydroorotate Dehydrogenase Inhibitor Series” (J Med Chem, 2021).
